In article PMC11378028 (RSC Advances, 2024):
In brackets after ≈: the same amount, converted by molar mass.

Columns and labels:
[1] = target: human DNA topoisomerase IIα (Homo sapiens, UniProt P11388); experiment: human DNA topoisomerase IIα inhibition; type: biochemical
[2] = target: E. coli DNA gyrase (Escherichia coli, UniProt P0AES6); experiment: DNA gyrase supercoiling plate assay; type: biochemical; details: IC50 E. coli gyrase, supercoiling assay
[3] = tested on: A. baumannii ATCC 19606; experiment: MIC, broth microdilution; type: cell-based; details: Acinetobacter baumannii, ATCC19606, read-out: MIC A. baumannii ATCC 19606
[4] = tested on: K. aerogenes ATCC 13408; experiment: MIC, broth microdilution; type: cell-based; details: Klebsiella aerogenes, ATCC13408, read-out: MIC K. aerogenes ATCC 13408
[5] = target: E. coli topoisomerase IV (Escherichia coli, UniProt P20083); experiment: topoisomerase IV relaxation plate assay; type: biochemical
Chain of E. coli topoisomerase IV (P20083 whole entry): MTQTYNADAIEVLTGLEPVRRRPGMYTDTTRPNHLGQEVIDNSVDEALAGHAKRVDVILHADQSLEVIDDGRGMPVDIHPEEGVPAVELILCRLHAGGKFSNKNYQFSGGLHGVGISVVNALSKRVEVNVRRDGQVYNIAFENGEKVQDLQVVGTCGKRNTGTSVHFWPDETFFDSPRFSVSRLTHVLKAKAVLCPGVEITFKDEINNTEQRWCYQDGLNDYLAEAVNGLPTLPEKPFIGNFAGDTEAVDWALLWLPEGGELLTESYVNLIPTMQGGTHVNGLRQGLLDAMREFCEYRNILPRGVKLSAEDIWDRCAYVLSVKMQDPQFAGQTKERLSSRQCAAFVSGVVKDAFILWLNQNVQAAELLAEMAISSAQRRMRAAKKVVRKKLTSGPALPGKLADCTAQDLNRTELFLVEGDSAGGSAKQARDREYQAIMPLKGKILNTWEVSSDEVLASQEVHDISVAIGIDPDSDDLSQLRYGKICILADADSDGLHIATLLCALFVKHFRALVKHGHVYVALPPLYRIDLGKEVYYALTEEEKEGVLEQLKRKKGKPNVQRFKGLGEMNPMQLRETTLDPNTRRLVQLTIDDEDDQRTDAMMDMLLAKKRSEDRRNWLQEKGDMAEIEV
Chain of E. coli topoisomerase IV (P0AFI2 whole entry partner): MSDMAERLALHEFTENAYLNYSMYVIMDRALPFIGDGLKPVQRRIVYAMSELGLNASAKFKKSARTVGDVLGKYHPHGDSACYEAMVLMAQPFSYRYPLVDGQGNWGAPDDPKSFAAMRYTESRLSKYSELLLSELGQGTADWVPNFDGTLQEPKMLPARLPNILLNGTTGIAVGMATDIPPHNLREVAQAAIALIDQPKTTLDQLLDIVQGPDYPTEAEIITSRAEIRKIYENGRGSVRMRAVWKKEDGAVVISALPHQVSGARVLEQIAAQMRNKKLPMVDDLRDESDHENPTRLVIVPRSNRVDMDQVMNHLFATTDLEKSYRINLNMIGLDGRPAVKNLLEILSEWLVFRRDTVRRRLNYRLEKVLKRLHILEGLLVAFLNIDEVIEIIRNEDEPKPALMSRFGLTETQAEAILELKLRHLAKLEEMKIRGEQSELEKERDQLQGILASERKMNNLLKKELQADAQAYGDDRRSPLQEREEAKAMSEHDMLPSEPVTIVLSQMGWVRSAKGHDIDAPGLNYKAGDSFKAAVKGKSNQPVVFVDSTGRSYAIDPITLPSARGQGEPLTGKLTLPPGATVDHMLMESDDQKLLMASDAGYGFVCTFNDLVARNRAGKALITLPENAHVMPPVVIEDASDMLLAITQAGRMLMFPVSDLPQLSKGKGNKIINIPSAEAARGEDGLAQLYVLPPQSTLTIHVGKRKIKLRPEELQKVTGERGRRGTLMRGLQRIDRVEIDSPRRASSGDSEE

[6] = target: S. aureus topoisomerase IV (Staphylococcus aureus, UniProt P0C1S7); experiment: topoisomerase IV relaxation plate assay; type: biochemical; details: read-out: RA (residual activity) S. aureus topo IV
Chain of S. aureus topoisomerase IV (P0C1S7 whole entry): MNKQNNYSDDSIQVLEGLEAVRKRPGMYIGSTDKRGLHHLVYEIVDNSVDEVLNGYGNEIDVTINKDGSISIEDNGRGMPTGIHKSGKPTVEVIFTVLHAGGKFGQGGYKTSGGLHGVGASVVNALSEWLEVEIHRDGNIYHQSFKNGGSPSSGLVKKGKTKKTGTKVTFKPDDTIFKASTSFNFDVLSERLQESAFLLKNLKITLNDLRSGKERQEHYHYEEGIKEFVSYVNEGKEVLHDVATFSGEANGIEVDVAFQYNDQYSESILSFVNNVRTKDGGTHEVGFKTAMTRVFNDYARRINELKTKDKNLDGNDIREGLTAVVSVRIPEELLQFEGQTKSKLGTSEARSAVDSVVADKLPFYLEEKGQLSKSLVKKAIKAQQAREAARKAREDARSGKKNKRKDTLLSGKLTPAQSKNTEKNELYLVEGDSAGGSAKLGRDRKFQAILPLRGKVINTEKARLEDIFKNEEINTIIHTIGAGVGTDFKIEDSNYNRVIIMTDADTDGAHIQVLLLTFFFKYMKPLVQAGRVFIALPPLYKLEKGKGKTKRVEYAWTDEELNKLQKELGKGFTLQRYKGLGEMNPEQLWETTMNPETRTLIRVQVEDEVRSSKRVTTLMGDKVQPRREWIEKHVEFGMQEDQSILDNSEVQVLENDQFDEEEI
Chain of S. aureus topoisomerase IV (P0C1U9 whole entry partner): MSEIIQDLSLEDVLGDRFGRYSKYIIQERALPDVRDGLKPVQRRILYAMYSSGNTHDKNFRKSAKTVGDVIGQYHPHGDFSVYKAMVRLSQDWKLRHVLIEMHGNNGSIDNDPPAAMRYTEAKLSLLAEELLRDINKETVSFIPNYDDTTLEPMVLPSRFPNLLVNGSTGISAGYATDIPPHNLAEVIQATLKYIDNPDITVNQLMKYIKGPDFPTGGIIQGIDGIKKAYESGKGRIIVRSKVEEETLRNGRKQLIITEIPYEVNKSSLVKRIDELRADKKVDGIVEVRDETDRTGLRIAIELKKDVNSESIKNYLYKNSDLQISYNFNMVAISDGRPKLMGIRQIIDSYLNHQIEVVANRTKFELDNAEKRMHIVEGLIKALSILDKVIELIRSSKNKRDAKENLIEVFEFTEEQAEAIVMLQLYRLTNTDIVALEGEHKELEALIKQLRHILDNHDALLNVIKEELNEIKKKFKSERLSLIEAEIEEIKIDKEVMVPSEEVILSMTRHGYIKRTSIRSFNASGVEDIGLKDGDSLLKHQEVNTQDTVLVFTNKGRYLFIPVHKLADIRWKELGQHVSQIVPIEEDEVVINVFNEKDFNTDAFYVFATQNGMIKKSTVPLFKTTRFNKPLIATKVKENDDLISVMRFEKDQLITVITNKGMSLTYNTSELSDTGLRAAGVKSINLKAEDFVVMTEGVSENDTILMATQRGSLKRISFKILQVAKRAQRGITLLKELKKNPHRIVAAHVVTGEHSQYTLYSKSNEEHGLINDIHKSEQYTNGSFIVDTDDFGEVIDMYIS

[7] = tested on: E. faecium ATCC 35667; experiment: MIC, broth microdilution; type: cell-based
[8] = tested on: P. aeruginosa ATCC 27853; experiment: MIC, broth microdilution; type: cell-based; details: Pseudomonas aeruginosa, ATCC27853, read-out: MIC P. aeruginosa ATCC 27853
[9] = target: S. aureus DNA gyrase (Staphylococcus aureus, UniProt P0A0K8); experiment: DNA gyrase supercoiling plate assay; type: biochemical; details: read-out: RA (residual activity) S. aureus gyrase
[10] = tested on: K. pneumoniae ATCC 700603; experiment: MIC, broth microdilution; type: cell-based; details: Klebsiella pneumoniae, ATCC700603, read-out: MIC K. pneumoniae ATCC 700603
[11] = tested on: E. coli ATCC 25922; experiment: MIC, broth microdilution; type: cell-based; details: Escherichia coli, ATCC25922, read-out: MIC E. coli ATCC 25922
[12] = tested on: K. pneumoniae SE K14; experiment: MIC against fluoroquinolone-resistant clinical isolate; type: cell-based; details: Klebsiella pneumoniae, SEK14, read-out: MIC K. pneumoniae SE K14
[13] = tested on: K. pneumoniae ATCC 10031; experiment: MIC, broth microdilution; type: cell-based; details: Klebsiella pneumoniae, ATCC10031, read-out: MIC K. pneumoniae ATCC 10031
[14] = tested on: MRSA clinical isolate-2; experiment: MIC against fluoroquinolone-resistant clinical isolate; type: cell-based; details: Staphylococcus aureus, read-out: MIC MRSA clinical isolate-2
[15] = tested on: S. aureus ATCC 29213; experiment: MIC, broth microdilution; type: cell-based, Staphylococcus aureus; details: for MIC: Staphylococcus aureus, ATCC29213, read-out: MIC S. aureus ATCC 29213, broth microdilution
[16] = target: A. baumannii DNA gyrase (Acinetobacter baumannii, UniProt A0ABX6CA01); experiment: DNA gyrase supercoiling assay; type: biochemical
[17] = tested on: K. pneumoniae NCTC 13440; experiment: MIC against fluoroquinolone-resistant clinical isolate; type: cell-based; details: Klebsiella pneumoniae, NCTC13440, read-out: MIC K. pneumoniae NCTC 13440
[18] = tested on: E. faecalis ATCC 29212; experiment: MIC, broth microdilution; type: cell-based; details: Enterococcus faecalis, ATCC29212, read-out: MIC E. faecalis ATCC 29212
[19] = tested on: E. spp. cloacae ATCC 13047; experiment: MIC, broth microdilution; type: cell-based; details: read-out: MIC E. spp. cloacae ATCC 13047
[20] = target: P. aeruginosa DNA gyrase (Pseudomonas aeruginosa, UniProt Q9I7C2); experiment: DNA gyrase supercoiling assay; type: biochemical
[21] = tested on: MRSA clinical isolate-1; experiment: MIC against fluoroquinolone-resistant clinical isolate; type: cell-based; details: Staphylococcus aureus, read-out: MIC MRSA clinical isolate-1
[22] = tested on: S. aureus ATCC 43300 (MRSA); experiment: MIC, broth microdilution; type: cell-based; details: Staphylococcus aureus, ATCC43300|MRSA, read-out: MIC S. aureus ATCC 43300 (MRSA)
[23] = tested on: K. pneumoniae K9–K25; experiment: MIC against fluoroquinolone-resistant clinical isolate; type: cell-based; details: Klebsiella pneumoniae, read-out: MIC K. pneumoniae K9–K25
[24] = tested on: K. pneumoniae SE K13; experiment: as above; type: cell-based; details: Klebsiella pneumoniae, SEK13, read-out: MIC K. pneumoniae SE K13
[25] = tested on: S. aureus ATCC 29213; experiment: spontaneous frequency of resistance; type: cell-based, Staphylococcus aureus
[26] = tested on: K. pneumoniae ATCC 10031; experiment: spontaneous frequency of resistance; type: cell-based, Klebsiella pneumoniae
[27] = tested on: S. aureus ATCC 29213 adapted lines; experiment: MIC of adapted lines; details: colonies from frequency of resistance plates
[28] = read-out: RA (residual activity) Human topo IIα

Chain of human DNA topoisomerase IIα (P11388 whole entry): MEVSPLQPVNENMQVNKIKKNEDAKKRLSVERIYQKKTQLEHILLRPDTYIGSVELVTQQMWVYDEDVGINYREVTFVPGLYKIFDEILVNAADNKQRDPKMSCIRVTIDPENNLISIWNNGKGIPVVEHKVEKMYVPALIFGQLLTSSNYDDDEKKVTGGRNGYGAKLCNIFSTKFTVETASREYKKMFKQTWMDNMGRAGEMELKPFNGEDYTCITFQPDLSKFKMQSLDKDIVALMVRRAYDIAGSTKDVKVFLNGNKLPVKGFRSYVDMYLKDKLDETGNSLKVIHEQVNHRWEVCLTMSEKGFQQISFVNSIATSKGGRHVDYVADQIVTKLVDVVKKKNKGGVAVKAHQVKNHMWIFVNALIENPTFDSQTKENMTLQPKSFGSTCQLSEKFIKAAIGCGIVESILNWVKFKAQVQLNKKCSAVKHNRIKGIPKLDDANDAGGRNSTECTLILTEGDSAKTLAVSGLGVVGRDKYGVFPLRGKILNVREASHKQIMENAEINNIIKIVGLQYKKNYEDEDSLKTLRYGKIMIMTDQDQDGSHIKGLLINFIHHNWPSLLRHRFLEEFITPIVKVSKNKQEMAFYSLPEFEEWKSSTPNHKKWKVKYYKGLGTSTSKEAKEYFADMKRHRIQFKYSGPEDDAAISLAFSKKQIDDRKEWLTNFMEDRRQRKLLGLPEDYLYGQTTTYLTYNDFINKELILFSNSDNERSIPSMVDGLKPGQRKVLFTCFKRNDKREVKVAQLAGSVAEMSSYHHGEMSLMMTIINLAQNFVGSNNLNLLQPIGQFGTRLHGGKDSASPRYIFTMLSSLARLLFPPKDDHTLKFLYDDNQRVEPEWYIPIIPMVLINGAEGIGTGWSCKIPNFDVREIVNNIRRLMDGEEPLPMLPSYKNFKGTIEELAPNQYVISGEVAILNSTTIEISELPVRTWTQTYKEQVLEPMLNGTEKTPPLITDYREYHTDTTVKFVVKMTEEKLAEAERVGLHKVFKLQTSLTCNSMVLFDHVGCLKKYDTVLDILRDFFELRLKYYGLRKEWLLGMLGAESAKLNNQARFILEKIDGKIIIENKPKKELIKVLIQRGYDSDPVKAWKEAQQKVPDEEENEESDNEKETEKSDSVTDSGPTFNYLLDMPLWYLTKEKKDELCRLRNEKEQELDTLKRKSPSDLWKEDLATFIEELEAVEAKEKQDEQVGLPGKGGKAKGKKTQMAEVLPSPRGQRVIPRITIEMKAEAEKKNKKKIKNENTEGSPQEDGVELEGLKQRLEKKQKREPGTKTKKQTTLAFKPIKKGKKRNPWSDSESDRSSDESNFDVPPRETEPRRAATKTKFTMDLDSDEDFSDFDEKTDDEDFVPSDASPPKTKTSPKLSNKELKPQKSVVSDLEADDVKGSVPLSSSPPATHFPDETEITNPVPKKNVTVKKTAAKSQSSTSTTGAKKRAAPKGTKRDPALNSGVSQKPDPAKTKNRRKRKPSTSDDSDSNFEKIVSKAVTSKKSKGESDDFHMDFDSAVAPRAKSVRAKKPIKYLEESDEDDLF

Q: How did the remaining activity at 100 µM [1, 28] turn out when `Cc1[nH]c(C(=O)Nc2ccc(C(=O)O)cc2N2CCCC(CN)C2)c(Cl)c1Cl.Cl` (stereo not shown) [Compound 20i, (1-(5-Carboxy-2-(3,4-dichloro-5-methyl-1H-pyrrole-2-carboxamido)phenyl)piperidin-3-yl)methanaminium chloride] was run?
A: The remaining activity at 100 µM was 28%.

Q: What about the IC50 [2] of the same molecule?
A: The IC50 was 6.34 nM.

Q: And the MIC [3]?
A: Its MIC is greater than 32 µg/mL.

Q: What about the MIC [4] of the same molecule?
A: Its MIC is greater than 32 µg/mL.

Q: What about the IC50 [5] of the same molecule?
A: Its IC50 is 143 nM.

Q: What about the remaining activity at 1 µM [6] of the same molecule?
A: The remaining activity at 1 µM was 0%.

Q: And the “MIC E. faecium ATCC 35667” value [7]?
A: Its value is 32 µg/mL.

Q: What about the MIC [8] of the same molecule?
A: Its MIC is greater than 32 µg/mL.

Q: And the remaining activity at 0.1 µM [9]?
A: Its remaining activity at 0.1 µM is 28%.

Q: What about the MIC [10] of the same molecule?
A: The MIC was greater than 32 µg/mL.

Q: And the MIC [11]?
A: Its MIC is greater than 32 µg/mL.

Q: With `Cc1[nH]c(C(=O)Nc2ccc(-c3n[nH]c(=O)o3)cc2N2CC[C@H](N)C2)c(Cl)c1Cl.Cl` [Compound 23b, (S)-1-(2-(3,4-Dichloro-5-methyl-1H-pyrrole-2-carboxamido)-5-(5-oxo-4,5-dihydro-1,3,4-oxadiazol-2-yl)phenyl)pyrrolidin-3-aminium chloride] as the molecule, how does the IC50 [1] read?
A: The IC50 was 86300 nM.

Q: And the MIC [12]?
A: Its MIC is greater than 64 µg/mL.

Q: What about the MIC [13] of the same molecule?
A: The MIC was 0.0625 µg/mL.

Q: What about the MIC [14] of the same molecule?
A: Its MIC is 2 µg/mL.

Q: And the MIC [15]?
A: Its MIC is 1 µg/mL.

Q: And the IC50 [16]?
A: The IC50 was 15.3 nM.

Q: And the MIC [17]?
A: The MIC was greater than 64 µg/mL.

Q: What about the MIC [18] of the same molecule?
A: Its MIC is 1 µg/mL.

Q: What about the MIC [4] of the same molecule?
A: Its MIC is greater than 32 µg/mL.

Q: And the MIC [19]?
A: The MIC was 32 µg/mL.

Q: What about the IC50 [20] of the same molecule?
A: The IC50 was 3.63 nM.

Q: And the MIC [8]?
A: Its MIC is 32 µg/mL.

Q: And the MIC [21]?
A: Its MIC is 4 µg/mL.

Q: And the MIC [22]?
A: Its MIC is 2 µg/mL.

Q: What about the MIC [23] of the same molecule?
A: The MIC was greater than 64 µg/mL.

Q: What about the MIC [10] of the same molecule?
A: Its MIC is greater than 32 µg/mL.

Q: What does the source list for `Cc1[nH]c(C(=O)Nc2ccc(-c3n[nH]c(=O)o3)cc2N2CCC[C@H](N)C2)c(Cl)c1Cl.Cl` [Compound 23c, (S)-1-(2-(3,4-Dichloro-5-methyl-1H-pyrrole-2-carboxamido)-5-(5-oxo-4,5-dihydro-1,3,4-oxadiazol-2-yl)phenyl)piperidin-3-aminium chloride]?
A: remaining activity at 50 µM [1, 28]: 90%; MIC [12]: > 64 µg/mL; MIC [24]: 32 µg/mL; MIC [13]: 0.25 µg/mL; MIC [14]: 2 µg/mL; MIC [15]: 2 µg/mL; resistance-proneness compared to novobiocin [25]: significantly less resistance-prone compared to novobiocin; MIC [3]: 4 µg/mL; MIC [17]: > 64 µg/mL; resistance-proneness compared to novobiocin [26]: significantly less resistance-prone compared to novobiocin; MIC [18]: 2 µg/mL; MIC [4]: > 32 µg/mL; IC50 [5]: 448 nM; MIC [19]: > 64 µg/mL; MIC [21]: 4 µg/mL; MIC [22]: 2 µg/mL; MIC [23]: > 64 µg/mL; change in MIC values compared to the ancestor [27]: 4 fold; MIC [10]: > 32 µg/mL

Q: `Cc1[nH]c(C(=O)Nc2ccc(C(=O)O)cc2N2CCN(C(=O)OC(C)(C)C)CC2)c(Cl)c1Cl` [Compound 18a, 3-(4-(tert-Butoxycarbonyl)piperazin-1-yl)-4-(3,4-dichloro-5-methyl-1H-pyrrole-2-carboxamido)benzoic acid] was tested. Which IC50 [2] did it give?
A: Its IC50 is 159 nM.

Q: What about the MIC [15] of the same molecule?
A: The MIC was 4 to 32 µg/mL (≈ 8.04 to 64.3 µM).

Q: What about the “MIC S. aureus ATCC 29213” value ([15]; broth microdilution) of the same molecule?
A: Its value is 4 µg/mL (≈ 8.04 µM).

Q: What about the MIC [3] of the same molecule?
A: The MIC was greater than 32 µg/mL.

Q: What about the MIC [4] of the same molecule?
A: Its MIC is greater than 32 µg/mL.

Q: And the remaining activity at 1 µM ([5]; read-out: RA (residual activity) E. coli topo IV)?
A: The remaining activity at 1 µM was 99%.

Q: And the remaining activity at 1 µM [6]?
A: The remaining activity at 1 µM was 21%.

Q: And the “MIC E. faecium ATCC 35667” value [7]?
A: Its value is 16 µg/mL (≈ 32.2 µM).

Q: What about the MIC [8] of the same molecule?
A: Its MIC is greater than 32 µg/mL.

Q: What about the remaining activity at 1 µM [9] of the same molecule?
A: The remaining activity at 1 µM was 54%.

Q: And the MIC [10]?
A: Its MIC is greater than 32 µg/mL.

Q: And the MIC [11]?
A: Its MIC is greater than 32 µg/mL.
